Drawing on patent US5066802A, “Process for preparing pyrido-benzothiazine derivatives having high antibacterial activity and high bioavailability to tissues” (Mediolanum Farmaceutici Srl., priority 1987, dated 1991), this text covers MIC for three compounds.

Molecules are shown by their SMILES. ≈ marks a conversion by molar mass, not a printed value. Structures can show the parent of a compound that is named as a salt. Bounds are passed on as bounds.

Common to all, as to format: cell-based
One assay deals with Salmonella 9. The assay is described as follows: agar dilution MIC, Salmonella 9. Conditions: Mueller-Hinton agar, 10^5 CFU per point, about 18 hrs, 37° C., read-out: Minimum Inhibitory Concentrations. As for the experimental part: (§1) The antibacterial activity of the compounds according to the present invention was evaluated against pathogenic strains of recent clinical isolation, both gram positive and gram negative. Minimum inhibitory concentration (MIC) were determined by the diluition method in agar, using a multipoint inoculator (Denley Techn. Ltd. England). As a culture medium Mueller-Hinton agar (DIFCO) in Petri capsules was used.
(§2) The bacterial inoculum, originating from an overnight broth was inoculated by a multipoint and was standardized in such a way as to obtain 10^5 colony forming units (CFU) per point.
(§3) After about 18 hrs incubation in a thermostat at 37° C., the bacterial growth was evaluated on each plate.
Background: In agar dilution the substance is mixed into plates at graded concentrations.

For another assay, the system named is E. coli 963. As to the kind of experiment: agar dilution MIC, E. coli 963. As to conditions: Escherichia coli, Mueller-Hinton agar, 10^5 CFU per point, about 18 hrs, 37° C., read-out: Minimum Inhibitory Concentrations. As for the experimental part: as §1, §2, §3
A further assay has as its system Staphylococcus 29. As to the kind of experiment: agar dilution MIC, Staphylococcus 29. As to conditions: Mueller-Hinton agar, 10^5 CFU per point, about 18 hrs, 37° C., read-out: Minimum Inhibitory Concentrations. How it is done: as §1, §2, §3
For a further assay, the system named is Klebsiella 4. As to the kind of experiment: agar dilution MIC, Klebsiella 4. Conditions: Mueller-Hinton agar, 10^5 CFU per point, about 18 hrs, 37° C., read-out: Minimum Inhibitory Concentrations. How it is done: as §1, §2, §3
For the next assay, the system named is Klebsiella 5. The assay is described as follows: agar dilution MIC, Klebsiella 5. As to conditions: Mueller-Hinton agar, 10^5 CFU per point, about 18 hrs, 37° C., read-out: Minimum Inhibitory Concentrations. How it is done:
as §1, §2, §3

For another assay, the system named is Pseudomonas 2437. The assay is described as follows: agar dilution MIC, Pseudomonas 2437. Conditions: Mueller-Hinton agar, 10^5 CFU per point, about 18 hrs, 37° C., read-out: Minimum Inhibitory Concentrations. How it is done: as §1, §2, §3
The subject of a further assay is E. coli 15. The assay is described as follows: agar dilution MIC, E. coli 15. Conditions: Escherichia coli, Mueller-Hinton agar, 10^5 CFU per point, about 18 hrs, 37° C., read-out: Minimum Inhibitory Concentrations. As for the experimental part:
as §1, §2, §3

A further assay has as its system Proteus 25. The assay is described as follows: agar dilution MIC, Proteus 25. Conditions: Mueller-Hinton agar, 10^5 CFU per point, about 18 hrs, 37° C., read-out: Minimum Inhibitory Concentrations. As for the experimental part: as §1, §2, §3
The next assay has as its system Citrobacter 118. The assay is described as follows: agar dilution MIC, Citrobacter 118. Conditions: Mueller-Hinton agar, 10^5 CFU per point, about 18 hrs, 37° C., read-out: Minimum Inhibitory Concentrations. As for the experimental part: as §1, §2, §3
A further assay has as its system Staphylococcus 7. The assay is described as follows: agar dilution MIC, Staphylococcus 7. As to conditions: Mueller-Hinton agar, 10^5 CFU per point, about 18 hrs, 37° C., read-out: Minimum Inhibitory Concentrations. As for the experimental part: as §1, §2, §3
A further assay deals with Enterobacter 2653. The assay is described as follows: agar dilution MIC, Enterobacter 2653. As to conditions: Mueller-Hinton agar, 10^5 CFU per point, about 18 hrs, 37° C., read-out: Minimum Inhibitory Concentrations. As for the experimental part: as §1, §2, §3
Another assay relates to Pseudomonas 19. The assay is described as follows: agar dilution MIC, Pseudomonas 19. Conditions: Mueller-Hinton agar, 10^5 CFU per point, about 18 hrs, 37° C., read-out: Minimum Inhibitory Concentrations. How it is done:
as §1, §2, §3

Another assay concerns Staphylococcus 27. The assay is described as follows: agar dilution MIC, Staphylococcus 27. Conditions: Mueller-Hinton agar, 10^5 CFU per point, about 18 hrs, 37° C., read-out: Minimum Inhibitory Concentrations. As for the experimental part:
as §1, §2, §3

The next assay concerns Enterobacter 41. As to the kind of experiment: agar dilution MIC, Enterobacter 41. As to conditions: Mueller-Hinton agar, 10^5 CFU per point, about 18 hrs, 37° C., read-out: Minimum Inhibitory Concentrations. How it is done: as §1, §2, §3
The test system of another assay is Salmonella 10. As to the kind of experiment: agar dilution MIC, Salmonella 10. As to conditions: Mueller-Hinton agar, 10^5 CFU per point, about 18 hrs, 37° C., read-out: Minimum Inhibitory Concentrations. As for the experimental part:
as §1, §2, §3

The test system of another assay is Citrobacter 120. As to the kind of experiment: agar dilution MIC, Citrobacter 120. As to conditions: Mueller-Hinton agar, 10^5 CFU per point, about 18 hrs, 37° C., read-out: Minimum Inhibitory Concentrations. As for the experimental part:
as §1, §2, §3

The subject of the next assay is Proteus 966. The assay is described as follows: agar dilution MIC, Proteus 966. As to conditions: Mueller-Hinton agar, 10^5 CFU per point, about 18 hrs, 37° C., read-out: Minimum Inhibitory Concentrations. As for the experimental part:
as §1, §2, §3

With `CCNCC1CCN(c2c(F)cc3c(=O)c(C(=O)O)cn4c3c2OCC4C)C1` (stereo not drawn) [E.P. 0106489 ex. 20, reference compound], the MIC in the assay on Salmonella 9 was determined as 1 µg/mL (≈ 2.57 µM); with E. coli 963 it was 2 µg/mL (≈ 5.14 µM); in the assay on Staphylococcus 29, 0.5 µg/mL (≈ 1.28 µM); in the assay with Klebsiella 4 it was 0.5 µg/mL (≈ 1.28 µM); in the assay with Klebsiella 5 it was 2 µg/mL (≈ 5.14 µM); in the assay on Pseudomonas 2437, 128 µg/mL (≈ 329 µM). The MIC in the assay on E. coli 15 was determined as 0.5 µg/mL (≈ 1.28 µM); in the assay on Proteus 25, 1 µg/mL (≈ 2.57 µM); in the assay with Citrobacter 118 it was 4 µg/mL (≈ 10.3 µM); in the assay on Staphylococcus 7, 0.25 µg/mL (≈ 0.642 µM); with Enterobacter 2653 it was 0.25 µg/mL (≈ 0.642 µM); in the assay on Pseudomonas 19 it was 64 µg/mL (≈ 164 µM). Further, the MIC in the assay on Staphylococcus 27 came to 0.25 µg/mL (≈ 0.642 µM); in the assay with Enterobacter 41 it was 1 µg/mL (≈ 2.57 µM); with Salmonella 10, 1 µg/mL (≈ 2.57 µM); in the assay with Citrobacter 120, 2 µg/mL (≈ 5.14 µM); with Proteus 966, 2 µg/mL (≈ 5.14 µM).

`CCNCC1CCN(c2c(F)cc3c(=O)c(C(=O)O)cn4c3c2SCC4C)C1` (stereo not drawn) [ex. 1, 10-3-[(ethylamino)methyl]1-pyrrolidinyl]-9 fluoro-2,3-dihydro-3-methyl-7-oxo-7H-pyrido [1,2,3 de][1,4]benzothiazine-6-carboxylic acid hydrochloride]: the MIC in the assay with Salmonella 9 was 0.5 µg/mL; in the assay with E. coli 963, 2 µg/mL; in the assay with Staphylococcus 29, 0.25 µg/mL; in the assay with Klebsiella 4 it was 0.25 µg/mL; in the assay with Klebsiella 5, 2 µg/mL; in the assay with Pseudomonas 2437, 64 µg/mL. The MIC in the assay on E. coli 15 was 0.5 µg/mL; with Proteus 25, 4 µg/mL; in the assay with Citrobacter 118, 2 µg/mL; in the assay on Staphylococcus 7, 0.12 µg/mL; with Enterobacter 2653, 0.25 µg/mL; in the assay on Pseudomonas 19, 32 µg/mL. The MIC stood at 0.25 µg/mL with Staphylococcus 27; 0.5 µg/mL with Enterobacter 41; 0.5 µg/mL in the assay on Salmonella 10; 4 µg/mL in the assay with Citrobacter 120; 4 µg/mL in the assay on Proteus 966.

Take `CCNCC1CCN(c2c(F)cc3c(=O)c(C(=O)O)cn4c3c2SCC4)C1` (stereo not drawn) [ex. 2, 10-[3[(ethylamino)methyl]-1-pyrrolidinyl]-9-fluoro-2,3-dihydro-7-oxo-7H-pyr ido [1,2,3 de][1,4]benzothiazine-6-carboxylic acid hydrochloride]: the MIC is 4 µg/mL with Salmonella 9; 8 µg/mL in the assay on E. coli 963; 2 µg/mL with Staphylococcus 29; 2 µg/mL with Klebsiella 4; 8 µg/mL in the assay with Klebsiella 5; over 128 µg/mL with Pseudomonas 2437. In addition, the MIC in the assay with E. coli 15 came to 2 µg/mL; with Proteus 25, 8 µg/mL; in the assay on Citrobacter 118 it was 8 µg/mL; with Staphylococcus 7 it was 1 µg/mL; in the assay with Enterobacter 2653, 1 µg/mL; in the assay on Pseudomonas 19 it was 128 µg/mL. The MIC in the assay with Staphylococcus 27 came to 8 µg/mL; with Enterobacter 41, 4 µg/mL; in the assay on Salmonella 10, 2 µg/mL; with Citrobacter 120 it was 8 µg/mL; in the assay on Proteus 966, 8 µg/mL.
